The record followed here is patent US20090246292A1, “ANTIMICROBIAL FORMULATIONS COMPRISING A QUINONE AND A COPPER SALT” (priority 2006, published 2009).

Each structure is given as a SMILES string. Like-named read-outs stand apart in the source and are kept apart here.

Experiment [1] deals with P. acnes NCTC 737. Nature of the experiment: Disc diffusion assay (DDA), also supplemented.
Experiment [2] has as its system S. aureus ATCC 29213. Kind of experiment: Synergy disc diffusion assay (SDDA), also supplemented.
For experiment [3], the system named is S. aureus ATCC 29213. Nature of the experiment: Disc diffusion assay (DDA), also supplemented.
Experiment [4] concerns P. acnes NCTC 737. Kind of experiment: Synergy disc diffusion assay (SDDA), also supplemented.
Experiment [5] relates to P. acnes NCTC 737. Nature of the experiment: Minimum bactericidal concentration (MBC) assay. It is filed as cell-based, Propionibacterium acnes. As to the method:
(§1) (b) Minimum Bactericidal Concentration (MBC) Assay
(§2) Following incubation they were examined visually for bacterial growth.

Experiment [6] concerns P. acnes NCTC 737. Kind of experiment: Minimum inhibitory concentration (MIC) assay. It is filed as cell-based, Propionibacterium acnes. The source says: (§3) (a) Minimum Inhibitory Concentration (MIC) Assay
(§4) The culture media were as described above.
(§5) The assays included both negative (culture medium with no micro-organisms) and positive (culture medium plus diluting solvent plus micro-organism) controls.

Experiment [7] has as its system S. aureus ATCC 29213. Kind of experiment: Minimum inhibitory concentration (MIC) assay. It is filed as cell-based, Staphylococcus aureus.
Source text: as §3, §4, §5

Experiment [8] relates to S. aureus ATCC 29213. Kind of experiment: Minimum bactericidal concentration (MBC) assay. It is filed as cell-based, Staphylococcus aureus. As to the method:
as §1, §2

The mark [9] stands for this setting: quinone + CSL, salt and serum supplements.
Where [10] appears, read: quinone + CSPH, salt and serum supplements.
Where [11] appears, read: quinone + CSL, salt and lipid (1% (v/v) triolein).
The mark [12] stands for this setting: quinone + CSPH, salt and lipid (1% (v/v) triolein).
Where [13] appears, read: copper salt alone, P. acnes NCTC 737.
[14] abbreviates: copper salt alone, 200 μg per disc (silicate 62 μg), sodium chloride (100 mM).
[15] abbreviates: copper salt + TBHQ on one disc, 200 μg of each (silicate 62 μg), unsupplemented.
Where [16] appears, read: copper salt + TBHQ vs larger zone of either compound alone, unsupplemented.
Setting [17] is: copper salt + TBHQ, salt and serum supplements.
Where [18] appears, read: copper salt + TBHQ, unsupplemented.
Setting [19] is: copper salt + TBHQ, salt and lipid (1% (v/v) Tween 80).
Setting [20] is: copper salt alone, S. aureus ATCC 29213.
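For DDA + salt & lipid in this document: paper disc carrying compound placed on inoculated Wilkins-Chalgren Anaerobe agar pH 6.0, with lipid or NaCl supplement where listed, anaerobic 37 °C for 72 h, inhibition zone diameter read.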
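For SS SDDA area increase in this document: disc diffusion on Mueller-Hinton agar at pH 7.2, aerobic incubation at 37 °C lasting 19-20 h, two compounds assessed jointly for combined antimicrobial effect.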
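For SS SDDA increase in this document: disc diffusion on Mueller-Hinton agar at pH 7.2, aerobic incubation at 37 °C lasting 19-20 h, two compounds assessed jointly for combined antimicrobial effect.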
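For SS SDDA with CSL in this document: disc diffusion on Mueller-Hinton agar at pH 7.2, aerobic incubation at 37 °C lasting 19-20 h, two compounds assessed jointly for combined antimicrobial effect.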
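For SS SDDA with CSPH in this document: disc diffusion on Mueller-Hinton agar at pH 7.2, aerobic incubation at 37 °C lasting 19-20 h, two compounds assessed jointly for combined antimicrobial effect.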

Consider `Cc1cc(O)ccc1O` [2-methyl-p-hydroquinone], for which, in the experiment with P. acnes NCTC 737 [1] (Example 8, single compound, salt and 1% (v/v) triolein), the “DDA + salt & lipid” value is recorded as 35.18 (±4.06) mm. Further, in the experiment on S. aureus ATCC 29213 [2] (setting [9]), the “SS SDDA area increase” value was 90.18%, the “SS SDDA increase” value was 10.20 mm and the “SS SDDA with CSL” value is 37.11 (±1.11) mm. Besides, in the experiment on S. aureus ATCC 29213 [2] (quinone + CSL, unsupplemented), the SDDA area increase came out at 112.09% and the SDDA increase was 11.76 mm. Also, in the experiment on S. aureus ATCC 29213 [2] (setting [10]), the “SS SDDA area increase” value was 74.72%, the “SS SDDA increase” value was found to be 8.66 mm and the “SS SDDA with CSPH” value was 35.57 (±0.62) mm. Moreover, in the experiment on S. aureus ATCC 29213 [2] (quinone + CSPH, unsupplemented), the SDDA area increase turned out to be 140.93% and the SDDA increase was 14.23 mm. Moreover, the “DDA + salt & serum” value in the experiment with S. aureus ATCC 29213 [3] (Example 9, single compound, salt and serum) was 26.91 (±0.00) mm. Further, in the experiment with P. acnes NCTC 737 [4] (setting [11]), the “SL SDDA area increase” value is on record as 35.49%, the “SL SDDA increase” value was determined as 6.98 mm and the “SL SDDA with CSL” value is 49.54 (±0.81) mm. In the experiment on P. acnes NCTC 737 [4] (quinone + CSL, unsupplemented), the SDDA area increase is reported as 24.46% and the SDDA increase was 4.72 mm. Also, in the experiment on P. acnes NCTC 737 [4] (setting [12]), the “SL SDDA area increase” value is on record as 17.67%, the “SL SDDA increase” value is 4.20 mm and the “SL SDDA with CSPH” value is listed as 53.74 (±1.75) mm. Further, in the experiment with P. acnes NCTC 737 [4] (quinone + CSPH, unsupplemented), the SDDA area increase worked out at 24.24% and the SDDA increase was determined as 4.82 mm.

In the experiment on P. acnes NCTC 737 [5], `CC(=O)[O-].[Cu+]` [Copper (I) acetate] yielded a minimal bactericidal concentration (MBC) of 31.25 µg/mL. In addition, in the experiment with P. acnes NCTC 737 [1], the DDA was 52.04 mm, the “DDA + lipid” value was determined as 45.46 mm, the “DDA + salt” value came out at 49.48 mm and the “DDA + salt & lipid” value turned out to be 52.15 mm. Moreover, in the experiment with P. acnes NCTC 737 [6], the minimum inhibitory concentration (MIC) is 7.8 µg/mL and the MIC/MBC ratio is on record as 0.25. In addition, in the experiment on S. aureus ATCC 29213 [2], the SDDA area increase is on record as 16.25%, the SDDA increase worked out at 3.16 mm, the “SDDA with TBHQ” value is given as 43.58 mm and the “SS SDDA area increase” value is given as −51.82%. In the experiment on S. aureus ATCC 29213 [2], the “SS SDDA increase” value was −13.36 mm and the “SS SDDA with TBHQ” value was found to be 30.32 mm. In addition, in the experiment on S. aureus ATCC 29213 [3], the DDA is given as 0 mm, the “DDA + lipid” value is listed as 0 mm, the “DDA + salt” value amounted to 0 mm and the “DDA + salt & serum” value came to 0 mm. Also, in the experiment on P. acnes NCTC 737 [4], the SDDA area increase was found to be 84.62%, the SDDA increase is given as 18.67 mm, the “SDDA with TBHQ” value is 70.71 mm and the “SL SDDA area increase” value came out at 59.77%. Further, in the experiment with P. acnes NCTC 737 [4], the “SL SDDA increase” value was 13.77 mm and the “SL SDDA with TBHQ” value was determined as 65.91 mm. In addition, the minimal inhibitory concentration (MIC) with S. aureus ATCC 29213 [7] was over 250 µg/mL. This molecule also gave a minimum bactericidal concentration (MBC) against S. aureus ATCC 29213 [8] of over 250 µg/mL.

`[Cu][Br]` [Copper (I) bromide]: the values for the MBC in the experiment on P. acnes NCTC 737 [5] (setting [13]) and in the experiment on S. aureus ATCC 29213 [8] (setting [20]) were 125 µg/mL and over 250 µg/mL, respectively. Moreover, the “DDA + lipid” value in the experiment on P. acnes NCTC 737 [1] (copper salt alone, 200 μg per disc (silicate 62 μg), 1% (v/v) Tween 80) is listed as 43.92 mm; in the experiment on S. aureus ATCC 29213 [3] (copper salt alone, 200 μg per disc (silicate 62 μg), Tween 80 at 1% v/v), 0 mm. The “DDA + salt & lipid” value with P. acnes NCTC 737 [1] (copper salt alone, 200 μg per disc (silicate 62 μg), salt and 1% (v/v) Tween 80) is 43.70 mm. Also, the “DDA + salt” value with P. acnes NCTC 737 [1] (setting [14]) is on record as 29.38 mm; in the experiment on S. aureus ATCC 29213 [3] (setting [14]), 0 mm. Besides, the minimal inhibitory concentration (MIC) in the experiment with P. acnes NCTC 737 [6] (setting [13]) was 15.6 µg/mL; in the experiment on S. aureus ATCC 29213 [7] (setting [20]) it was over 250 µg/mL. The MIC/MBC ratio with P. acnes NCTC 737 [6] (setting [13]) worked out at 0.125. Besides, the “SS SDDA with TBHQ” value in the experiment with S. aureus ATCC 29213 [2] (copper salt + TBHQ on one disc, 200 μg of each (silicate 62 μg), salt and serum supplements) was determined as 46.42 mm. For the same molecule, the “SDDA with TBHQ” value in the experiment with S. aureus ATCC 29213 [2] (setting [15]) is given as 55.37 mm; in the experiment on P. acnes NCTC 737 [4] (setting [15]), 54.65 mm. Besides, the SDDA increase in the experiment with S. aureus ATCC 29213 [2] (setting [16]) is 14.95 mm; in the experiment with P. acnes NCTC 737 [4] (setting [16]) it was 15.44 mm. In addition, the “SS SDDA area increase” value with S. aureus ATCC 29213 [2] (setting [17]) was 12.94%. The “SS SDDA increase” value in the experiment with S. aureus ATCC 29213 [2] (setting [17]) stood at 2.74 mm. The SDDA area increase worked out at 87.65% in the experiment on S. aureus ATCC 29213 [2] (setting [18]) and 94.26% in the experiment on P. acnes NCTC 737 [4] (setting [18]). Further, the “DDA + salt & serum” value with S. aureus ATCC 29213 [3] (copper salt alone, 200 μg per disc (silicate 62 μg), salt and horse serum (5% v/v)) was 0 mm. Also, the “SL SDDA with TBHQ” value in the experiment with P. acnes NCTC 737 [4] (copper salt + TBHQ on one disc, 200 μg of each (silicate 62 μg), salt and lipid (1% (v/v) Tween 80)) came out at 56.01 mm. Moreover, the “SL SDDA area increase” value with P. acnes NCTC 737 [4] (setting [19]) was 64.26%. Besides, the “SL SDDA increase” value in the experiment on P. acnes NCTC 737 [4] (setting [19]) is listed as 12.31 mm.
